Data taken from patent EP4778922A1, “BICYCLIC COMPOUND, AND PREPARATION METHOD THEREFOR AND PHARMACEUTICAL USE THEREOF” (Shanghai Jeyou Pharmaceutical Co., Ltd., priority 2023, dated 2025).
Read-outs that look alike come from different tables or passages of the source.

Assays:
[1] = target: T1, CYP2D6 (Homo sapiens, UniProt P10635); test: CYP inhibition assay in human liver microsomes; format: in vitro ADME
T1 construct: co-incubated with human liver microsomes; from tissue; host or cells: human liver microsomes
Description: (§1) Test Example 3: CYP Inhibition Assay
(§2) An in vitro assay system was used to evaluate the effects of the compounds on the activities of several human liver microsomal cytochrome P450 (CYP) isozymes (CYP1A2, CYP2C9, CYP2D6, CYP3A4 (testosterone/midazolam), CYP2C19, and CYP2C8). Specific probe substrates for CYP450 isozymes were co-incubated with human liver microsomes and the compound at various concentrations (0, 0.0300, 0.100, 0.300, 1.00, 3.00, 10.0 µM). The reaction was initiated by adding the coenzyme NADPH. After the reaction was completed, the samples were processed, and the metabolites generated from the probe substrates were detected by liquid chromatography-tandem mass spectrometry (LC-MS/MS). Based on the resulting dose-response curves, the IC50 values of the test compounds for the probe substrate reactions catalyzed by each CYP isozyme were calculated.

[2] = target: T2, CYP1A2 (Homo sapiens, UniProt P05177); test: CYP inhibition assay in human liver microsomes; format: in vitro ADME
T2 construct: co-incubated with human liver microsomes; from tissue; host or cells: human liver microsomes
T2 sequence (P05177 1-516): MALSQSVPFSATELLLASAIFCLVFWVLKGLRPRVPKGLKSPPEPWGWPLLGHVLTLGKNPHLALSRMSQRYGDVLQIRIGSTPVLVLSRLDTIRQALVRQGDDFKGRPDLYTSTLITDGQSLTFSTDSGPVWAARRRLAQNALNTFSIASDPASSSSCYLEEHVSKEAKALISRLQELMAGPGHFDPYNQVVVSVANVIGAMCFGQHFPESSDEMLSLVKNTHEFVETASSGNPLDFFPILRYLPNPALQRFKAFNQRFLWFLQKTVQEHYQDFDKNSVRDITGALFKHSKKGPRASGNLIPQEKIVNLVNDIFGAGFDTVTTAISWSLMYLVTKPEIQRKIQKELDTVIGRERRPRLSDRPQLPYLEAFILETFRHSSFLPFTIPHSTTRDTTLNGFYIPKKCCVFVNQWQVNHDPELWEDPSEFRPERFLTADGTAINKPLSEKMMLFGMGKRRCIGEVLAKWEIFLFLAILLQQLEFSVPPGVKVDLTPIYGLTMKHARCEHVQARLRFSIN
Description: as §1, §2

[3] = target: T3, CYP2C19 (Homo sapiens, UniProt P33261); test: CYP inhibition assay in human liver microsomes; format: in vitro ADME
T3 construct: co-incubated with human liver microsomes; from tissue; host or cells: human liver microsomes
Description: as §1, §2

[4] = target: T4, CYP3A4 (testosterone/midazolam) (Homo sapiens, UniProt P08684); test: CYP inhibition assay in human liver microsomes; format: in vitro ADME
T4 construct: co-incubated with human liver microsomes; from tissue; host or cells: human liver microsomes
Description: as §1, §2

[5] = target: T5, CYP2C8 (Homo sapiens, UniProt P10632); test: CYP inhibition assay in human liver microsomes; format: in vitro ADME
T5 construct: co-incubated with human liver microsomes; from tissue; host or cells: human liver microsomes
T5 sequence (P10632 1-490): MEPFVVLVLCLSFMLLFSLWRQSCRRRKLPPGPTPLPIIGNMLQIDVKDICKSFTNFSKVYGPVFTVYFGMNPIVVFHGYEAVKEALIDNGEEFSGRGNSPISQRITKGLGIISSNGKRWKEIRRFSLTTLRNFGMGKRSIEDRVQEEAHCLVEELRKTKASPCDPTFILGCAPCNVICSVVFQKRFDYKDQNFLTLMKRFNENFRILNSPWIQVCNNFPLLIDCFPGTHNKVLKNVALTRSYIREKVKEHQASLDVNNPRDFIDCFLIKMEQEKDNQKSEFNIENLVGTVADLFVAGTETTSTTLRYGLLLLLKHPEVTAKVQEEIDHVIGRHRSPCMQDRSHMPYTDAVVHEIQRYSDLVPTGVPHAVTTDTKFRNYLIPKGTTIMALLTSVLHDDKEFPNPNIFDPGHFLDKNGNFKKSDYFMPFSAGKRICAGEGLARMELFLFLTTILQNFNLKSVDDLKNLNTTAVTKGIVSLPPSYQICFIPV
Description: as §1, §2

[6] = target: T6, CYP2C9 (Homo sapiens, UniProt P11712); test: CYP inhibition assay in human liver microsomes; format: in vitro ADME
T6 construct: co-incubated with human liver microsomes; from tissue; host or cells: human liver microsomes
Description: as §1, §2

[7] = Mouse pharmacokinetic test; format: in vivo, ICR mice; settings: plasma; for Tmax: read-out: Tmax; for bioavailability: PO-30mpk vs IV-0.5mpk
Summary of the method: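 Male naive ICR mice (25–30 g, n=3 per route) received a single intravenous or oral dose, with feeding resumed 4 h post-dose. Blood was centrifuged at 4°C, and plasma was stored at -80°C until analysis.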

[8] = system: LNCaP cells; test: Cell proliferation inhibition assay in LNCaP cells (0.2 nM DHT, CellTiter-Glo, 7 days); format: cell-based, human; settings: Homo sapiens, LNCaP, 168 h
Summary of the method: (§3)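 22RV1 cells received compound alone; LNCaP cells were stimulated with 0.2 nM DHT added 1 h after compound. Seeding was 3000 cells/well.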

[9] = system: 22RV1 cells; test: Cell proliferation inhibition assay in 22RV1 cells (CellTiter-Glo, 7 days); format: cell-based, human; settings: Homo sapiens, 22Rv1, 168 h
Summary of the method: as §3

[10] = human liver microsomes, NADPH, read-out: CYPs 2D6 (IC50)
[11] = human liver microsomes, NADPH, read-out: CYPs 1A2 (IC50)
[12] = human liver microsomes, NADPH, read-out: CYPs 2C19 (IC50)
[13] = probe substrate midazolam, read-out: CYPs 3A4 (Midazolam) (IC50)
[14] = probe substrate testosterone, read-out: CYPs 3A4 (Testosterone) (IC50)
[15] = human liver microsomes, NADPH, read-out: CYPs 2C8 (IC50)
[16] = human liver microsomes, NADPH, read-out: CYPs 2C9 (IC50)

T1 sequence (P10635 whole entry): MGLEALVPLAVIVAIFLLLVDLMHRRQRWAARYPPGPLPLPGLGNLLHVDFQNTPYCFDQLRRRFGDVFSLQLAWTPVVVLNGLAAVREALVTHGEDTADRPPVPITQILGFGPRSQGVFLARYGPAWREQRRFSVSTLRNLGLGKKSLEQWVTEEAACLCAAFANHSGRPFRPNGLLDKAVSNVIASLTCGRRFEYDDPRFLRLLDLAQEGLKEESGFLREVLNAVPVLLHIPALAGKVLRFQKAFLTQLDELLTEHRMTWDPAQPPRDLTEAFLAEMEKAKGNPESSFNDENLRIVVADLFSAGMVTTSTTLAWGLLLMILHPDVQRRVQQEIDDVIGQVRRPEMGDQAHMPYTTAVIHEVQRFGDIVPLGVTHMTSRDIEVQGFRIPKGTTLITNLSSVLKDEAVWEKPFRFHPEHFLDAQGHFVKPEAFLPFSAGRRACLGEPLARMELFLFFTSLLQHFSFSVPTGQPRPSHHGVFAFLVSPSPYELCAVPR
T6 sequence (P11712 whole entry): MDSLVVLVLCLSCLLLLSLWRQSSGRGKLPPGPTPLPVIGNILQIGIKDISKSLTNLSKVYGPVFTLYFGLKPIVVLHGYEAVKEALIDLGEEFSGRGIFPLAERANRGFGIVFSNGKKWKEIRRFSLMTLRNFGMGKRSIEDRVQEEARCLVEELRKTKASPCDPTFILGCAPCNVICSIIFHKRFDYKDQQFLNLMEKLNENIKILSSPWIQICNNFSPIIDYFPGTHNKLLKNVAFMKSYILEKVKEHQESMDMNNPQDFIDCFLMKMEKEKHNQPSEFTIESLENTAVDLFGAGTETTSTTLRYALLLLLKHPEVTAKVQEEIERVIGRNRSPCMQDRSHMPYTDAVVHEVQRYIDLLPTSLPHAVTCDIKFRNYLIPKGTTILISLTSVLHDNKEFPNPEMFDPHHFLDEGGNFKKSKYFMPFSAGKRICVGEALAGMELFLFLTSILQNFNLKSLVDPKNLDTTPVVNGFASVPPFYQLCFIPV
T3 sequence (P33261 whole entry): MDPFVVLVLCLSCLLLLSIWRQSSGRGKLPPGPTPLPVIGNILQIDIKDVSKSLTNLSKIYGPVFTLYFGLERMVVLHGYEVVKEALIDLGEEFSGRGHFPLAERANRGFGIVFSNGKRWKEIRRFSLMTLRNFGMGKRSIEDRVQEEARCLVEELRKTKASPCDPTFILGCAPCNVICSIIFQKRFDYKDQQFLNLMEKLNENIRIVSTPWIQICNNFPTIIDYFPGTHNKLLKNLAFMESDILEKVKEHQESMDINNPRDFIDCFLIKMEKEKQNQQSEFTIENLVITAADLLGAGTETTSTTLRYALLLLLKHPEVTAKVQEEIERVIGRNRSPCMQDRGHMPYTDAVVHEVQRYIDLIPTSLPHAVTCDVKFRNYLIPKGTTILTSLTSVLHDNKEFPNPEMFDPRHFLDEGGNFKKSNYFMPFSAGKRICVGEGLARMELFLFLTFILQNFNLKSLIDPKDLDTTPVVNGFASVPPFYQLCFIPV
T4 sequence (P08684 whole entry): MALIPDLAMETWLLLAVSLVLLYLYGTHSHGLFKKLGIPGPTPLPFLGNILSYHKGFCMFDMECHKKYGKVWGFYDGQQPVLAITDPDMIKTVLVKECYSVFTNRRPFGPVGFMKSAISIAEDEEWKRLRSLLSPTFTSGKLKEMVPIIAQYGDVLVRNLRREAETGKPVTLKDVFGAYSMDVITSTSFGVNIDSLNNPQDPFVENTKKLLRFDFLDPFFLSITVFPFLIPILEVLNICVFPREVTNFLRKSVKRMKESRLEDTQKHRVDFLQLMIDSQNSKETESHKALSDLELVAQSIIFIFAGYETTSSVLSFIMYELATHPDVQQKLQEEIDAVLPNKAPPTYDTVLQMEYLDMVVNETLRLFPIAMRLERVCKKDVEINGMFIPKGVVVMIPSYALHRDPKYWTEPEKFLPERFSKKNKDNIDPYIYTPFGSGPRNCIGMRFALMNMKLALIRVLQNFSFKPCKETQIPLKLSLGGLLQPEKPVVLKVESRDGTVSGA

Question: Which IC50 [1, 10] does the source give for `CC(C)(c1ccc(-c2cnc(OCc3ccnc(N4CC([S@](C)(=N)=O)C4)n3)cn2)cc1)c1cc(Cl)c(OCCCl)c(C#N)c1` (single isomer, unassigned) [Compound 323A] here?
Answer: > 10 µM

Question: What about the IC50 [2, 11] of the same molecule?
Answer: > 10 µM

Question: And the IC50 [3, 12]?
Answer: > 10 µM

Question: What about the IC50 [4, 13] of the same molecule?
Answer: > 10 µM

Question: What about the IC50 [4, 14] of the same molecule?
Answer: > 10 µM

Question: And the IC50 [5, 15]?
Answer: > 10 µM

Question: And the IC50 [6, 16]?
Answer: 8 µM

Question: What about the AUC(0-inf) ([7]; po, 30 mg/kg, PO-30mpk) of the same molecule?
Answer: 1390 µg·h/mL

Question: And the Cmax ([7]; po, 30 mg/kg, PO-30mpk)?
Answer: 131000 ng/mL

Question: And the half-life ([7]; po, 30 mg/kg, PO-30mpk)?
Answer: 5.94 h

Question: And the Tmax ([7]; po, 30 mg/kg, PO-30mpk)?
Answer: 3.3 h

Question: And the IC50 [8]?
Answer: 0.58 µM

Question: For `CC(C)(c1ccc(-c2cnc(OCc3ccnc(N4CC([S@@](C)(=N)=O)C4)n3)cn2)cc1)c1cc(Cl)c(OCCCl)c(C#N)c1` (single isomer, unassigned) [Compound 323B], which IC50 [1, 10] is on record?
Answer: > 10 µM

Question: And the IC50 [2, 11]?
Answer: > 10 µM

Question: What about the IC50 [3, 12] of the same molecule?
Answer: > 10 µM

Question: And the IC50 [4, 13]?
Answer: > 10 µM

Question: And the IC50 [4, 14]?
Answer: > 10 µM

Question: What about the IC50 [5, 15] of the same molecule?
Answer: > 10 µM

Question: What about the IC50 [6, 16] of the same molecule?
Answer: 2.9 µM

Question: And the AUC(0-inf) ([7]; po, 30 mg/kg, PO-30mpk)?
Answer: 1180 µg·h/mL

Question: And the Cmax ([7]; po, 30 mg/kg, PO-30mpk)?
Answer: 108000 ng/mL

Question: And the half-life ([7]; po, 30 mg/kg, PO-30mpk)?
Answer: 6.05 h

Question: And the Tmax ([7]; po, 30 mg/kg, PO-30mpk)?
Answer: 2.7 h

Question: And the IC50 [8]?
Answer: 0.58 µM

Question: With `CC(C)(c1ccc(-c2cnc(OCc3ccnc(N4CC(S(C)(=O)=O)C4)n3)cn2)cc1)c1cc(Cl)c(OCCCl)c(C#N)c1` [Compound 262] as the molecule, how does the IC50 [1, 10] read?
Answer: > 10 µM

Question: And the IC50 [2, 11]?
Answer: > 10 µM

Question: What about the IC50 [3, 12] of the same molecule?
Answer: > 10 µM

Question: And the IC50 [4, 13]?
Answer: > 10 µM

Question: And the IC50 [4, 14]?
Answer: > 10 µM

Question: What about the IC50 [5, 15] of the same molecule?
Answer: > 10 µM

Question: What about the IC50 [6, 16] of the same molecule?
Answer: 8.3 µM

Question: What about the IC50 [9] of the same molecule?
Answer: 0.14 µM

Question: What about the C0 ([7]; 0.5 mg/kg, IV-0.5mpk) of the same molecule?
Answer: 1790 ng/mL

Question: What about the clearance ([7]; 0.5 mg/kg, IV-0.5mpk) of the same molecule?
Answer: 0.55 mL/min/kg

Question: What about the bioavailability ([7]; 30 mg/kg) of the same molecule?
Answer: 71.2%

Question: And the AUC(0-inf) ([7]; iv, 0.5 mg/kg, IV-0.5mpk)?
Answer: 15.2 µg·h/mL

Question: And the half-life ([7]; iv, 0.5 mg/kg, IV-0.5mpk)?
Answer: 10.8 h

Question: And the AUC(0-inf) ([7]; po, 30 mg/kg, PO-30mpk)?
Answer: 648 µg·h/mL

Question: What about the Cmax ([7]; po, 30 mg/kg, PO-30mpk) of the same molecule?
Answer: 74700 ng/mL

Question: And the half-life ([7]; po, 30 mg/kg, PO-30mpk)?
Answer: 5.2 h

Question: What about the Tmax ([7]; po, 30 mg/kg, PO-30mpk) of the same molecule?
Answer: 2 h

Question: And the IC50 [8]?
Answer: 0.34 µM

Question: For `CC(C)(c1ccc(-c2ccc(OCc3ccnc(P(C)(C)=O)n3)cc2)cc1)c1cc(Cl)c(OCCCl)c(C#N)c1` [Compound 2], which IC50 [1, 10] is on record?
Answer: > 10 µM

Question: What about the IC50 [2, 11] of the same molecule?
Answer: > 10 µM

Question: What about the IC50 [3, 12] of the same molecule?
Answer: > 10 µM

Question: And the IC50 [4, 13]?
Answer: > 10 µM

Question: What about the IC50 [4, 14] of the same molecule?
Answer: > 10 µM

Question: And the IC50 [6, 16]?
Answer: 6.9 µM

Question: What about the IC50 [9] of the same molecule?
Answer: 0.77 µM

Question: And the C0 ([7]; 0.5 mg/kg, IV-0.5mpk)?
Answer: 1200 ng/mL

Question: And the clearance ([7]; 0.5 mg/kg, IV-0.5mpk)?
Answer: 1.09 mL/min/kg

Question: What about the bioavailability ([7]; 30 mg/kg) of the same molecule?
Answer: 135%

Question: What about the AUC(0-inf) ([7]; iv, 0.5 mg/kg, IV-0.5mpk) of the same molecule?
Answer: 7.65 µg·h/mL

Question: And the half-life ([7]; iv, 0.5 mg/kg, IV-0.5mpk)?
Answer: 8.9 h

Question: And the AUC(0-inf) ([7]; po, 30 mg/kg, PO-30mpk)?
Answer: 619 µg·h/mL

Question: What about the Cmax ([7]; po, 30 mg/kg, PO-30mpk) of the same molecule?
Answer: 31700 ng/mL

Question: What about the half-life ([7]; po, 30 mg/kg, PO-30mpk) of the same molecule?
Answer: 12 h

Question: And the Tmax ([7]; po, 30 mg/kg, PO-30mpk)?
Answer: 3.3 h

Question: With `CC(C)(c1ccc(-c2ccc3oc(-c4ccnc(P(C)(C)=O)n4)c(N)c3c2)cc1)c1cc(Cl)c(OCCCl)c(C#N)c1` [Compound 56] as the molecule, how does the IC50 [1] read?
Answer: > 10 µM

Question: What about the IC50 [2] of the same molecule?
Answer: > 10 µM

Question: What about the IC50 [3] of the same molecule?
Answer: > 10 µM

Question: And the IC50 ([4]; CYPs 3A4 (Midazolam) (IC50), probe substrate midazolam)?
Answer: > 10 µM

Question: What about the IC50 ([4]; CYPs 3A4 (Testosterone) (IC50), probe substrate testosterone) of the same molecule?
Answer: > 10 µM

Question: And the IC50 [5]?
Answer: > 10 µM

Question: What about the IC50 [6] of the same molecule?
Answer: > 10 µM

Question: What about the IC50 [9] of the same molecule?
Answer: 0.27 µM

Question: What about the C0 ([7]; 0.5 mg/kg, IV-0.5mpk) of the same molecule?
Answer: 6190 ng/mL

Question: And the clearance ([7]; 0.5 mg/kg, IV-0.5mpk)?
Answer: 1.02 mL/min/kg

Question: And the bioavailability ([7]; 30 mg/kg)?
Answer: 55.6%

Question: What about the AUC(0-inf) ([7]; iv, 0.5 mg/kg, IV-0.5mpk) of the same molecule?
Answer: 8.3 µg·h/mL

Question: And the half-life ([7]; iv, 0.5 mg/kg, IV-0.5mpk)?
Answer: 6.1 h

Question: And the AUC(0-inf) ([7]; po, 30 mg/kg, PO-30mpk)?
Answer: 277 µg·h/mL

Question: And the Cmax ([7]; po, 30 mg/kg, PO-30mpk)?
Answer: 29600 ng/mL

Question: And the half-life ([7]; po, 30 mg/kg, PO-30mpk)?
Answer: 8.57 h

Question: And the Tmax ([7]; po, 30 mg/kg, PO-30mpk)?
Answer: 3.33 h
